# Literature values as cited in patent publication US20220265635A1, “TREATMENT OF NEUROLOGICAL DISEASE” (Aclipse One Inc., priority 2018, published 2022).
# System: dopamine receptors
# Settings: background description; cited from earlier work
smiles,measurement,value
"CN1CCc2cccc3c2[C@H]1Cc1ccc(O)c(O)c1-3 [(6aR)-6-methyl-5,6,6a,7-tetrahydro-4H-dibenzo[de,g]quinoline-10,11-diol, reference compound]",activity on dopamine receptors (in words),strong dopamine agonist
